Data: patent publication US20230279016A1, “Tetrahydropyrazolopyrimidines and Related Analogs for Inhibiting YAP/TAZ-TEAD” (THE KATHOLIEKE UNIVERSITEIT LEUVEN, priority 2021, published 2023)

System: YAP/TAZ-TEAD transcription
Experiment: Reporter gene assay for measuring the inhibition of YAP/TAZ-TEAD transcription (TEAD-responsive element luciferase reporter in Hek293T cells)
Type: cell-based
Conditions: Hek293T cells transiently transfected with TEAD-responsive element luciferase reporter, 24 hours incubation
Protocol: Hek293T cells are cultured in DMEM supplemented with 10% fetal bovine serum, Sodium pyruvate, Sodium bicarbonate, L-glutamine. The cells are harvested and transiently transfected with TEAD-responsive element luciferase reporter. Transfected cells are plated in 384-wells plate containing pre-diluted compounds. After 24 hours incubation at 37° C./5%CO2, assay plates were cooled down to RT and levelled to an equal volume per well, prior to the addition of 25 uL luciferase substrate SteadyLite (Perkin Elmer)/well. The plate was shaken for 10 min at 600 rpm, centrifuged for 1min at 500 rpm and measured with an Envision reader (PerkinElmer). The amount of relative light units produced by the TEAD reporter is used to calculated percent of inhibition.
The percent of reporter inhibition was calculated in the presence of a positive control inhibitor (100% inhibition) versus a condition with the presence of the vehicle basal activity of the reporter (0% inhibition). The ability of a test compound to inhibit this activity was determined as:
Percentage inhibition=[1-((RLU determined in the presence of vehicle—RLU determined for sample with test compound present) divided by (RLU determined in the presence of vehicle — RLU determined for sample with positive control inhibitor))] * 100
The activities of the example compounds tested are depicted in the table below. The activity ranges A, B and C refer to EC50 values in the reporter gene assay as described as follows: “A”: EC50 <1 μM; “B” : 1 μM≤EC50≤20 μM and “C” : EC50>20 μM, NT=not tested.

Compound: C=CC(=O)NCC1CN(c2ccc3scnc3c2)c2ccnn2C1 (single isomer, unassigned) [Cpd. No. 026-En2, (R)- or (S)-N-((4-(benzo[d]thiazol-5-yl)-4,5,6,7-tetrahydropyrazolo[1,5-a]pyrimidin-6-yl)methyl)acrylamide]
- EC50: 1000 to 20000 nM

Compound: C=CC(=O)NCC1CN(c2ccc(C(F)(F)F)cc2)c2cc(CC3CC3)nn2C1 (single isomer, unassigned) [Cpd. No. 032-En1, (R)- or (S)-N-((2-(cyclopropylmethyl)-4-(4-(trifluoromethyl)phenyl)-4,5,6,7-tetrahydropyrazolo[1,5-a]pyrimidin-6-yl)methyl)acrylamide]
- EC50: < 1000 nM

Compound: C=CC(=O)NC1CN(c2ccc(C(F)(F)F)cc2)c2ccnn2C1 (single isomer, unassigned) [Cpd. No. 061-En2, (R)- or (S)-N-(4-(4-(trifluoromethyl)phenyl)-4,5,6,7-tetrahydropyrazolo[1,5-a]pyrimidin-6-yl)acrylamide]
- EC50: < 1000 nM

Compound: CS(=O)(=O)NCC1CN(Cc2ccc(C(F)(F)F)cc2)c2ccnn2C1 (stereo not drawn) [Cpd. No. 051, N-((4-(4-(trifluoro-methyl)benzyl)-4,5,6,7-tetrahydropyrazolo[1,5-a]pyrimidin-6-yl)-methyl)methanesulfonamide]
- EC50 (Homo sapiens, HEK-293T, 24 h): > 20000 nM

Compound: C=CC(=O)NCC1CN(c2ccc(C(F)F)nc2)c2ccnn2C1 (single isomer, unassigned) [Cpd. No. 010-En2, (R)- or (S)-N-((4-(6-(difluoromethyl)pyridin-3-yl)-4,5,6,7-tetrahydropyrazolo[1,5-a]pyrimidin-6-yl)methyl)acrylamide]
- EC50: < 1000 nM

Compound: CN1CCC2(CN(c3ccc(C(F)(F)F)cc3)c3ccnn3C2)C1=O (single isomer, unassigned) [Cpd. No. 090-En1, (R)- or (S)-1′-methyl-4-(4-(trifluoromethyl)phenyl)-4,5-dihydro-7H-spiro[pyrazolo[1,5-a]pyrimidine-6,3′-pyrrolidin]-2′-one]
- EC50 (Homo sapiens, HEK-293T, 24 h): > 20000 nM

Compound: C=CC(=O)NCC1CN(c2ccc(OC(F)(F)F)c(F)c2)c2ccnn2C1 (stereo not drawn) [Cpd. No. 018, N-((4-(3-fluoro-4-(trifluoromethoxy)phenyl)-4,5,6,7-tetrahydropyrazolo[1,5-a]pyrimidin-6-yl)methyl)acrylamide]
- EC50 (Homo sapiens, HEK-293T, 24 h): < 1000 nM

Compound: CS(=O)(=O)NCC1CN(Cc2cccc(C(F)(F)F)c2)c2ccnn2C1 (stereo not drawn) [Cpd. No. 054, N-((4-(3-(trifluoro-methyl)benzyl)-4,5,6,7-tetrahydropyrazolo[1,5-a]pyrimidin-6-yl)-methyl)methanesulfonamide]
- EC50 (Homo sapiens, HEK-293T, 24 h): > 20000 nM

Compound: C=CC(=O)NCC1CN(c2ccc(OC(F)(F)F)cc2)c2cc(C)nn2C1 (single isomer, unassigned) [Cpd. No. 030-En1, (R)- or (S)-N-((2-methyl-4-(4-(trifluoromethoxy)phenyl)-4,5,6,7-tetrahydropyrazolo[1,5-a]pyrimidin-6-yl)methyl)acrylamide]
- EC50: < 1000 nM

Compound: C=CC(=O)NCC1CN(c2ccc(C(F)(F)F)cc2)c2cc(CC3CC3)nn2C1 (single isomer, unassigned) [Cpd. No. 032-En2, (R)- or (S)-N-((2-(cyclopropylmethyl)-4-(4-(trifluoromethyl)phenyl)-4,5,6,7-tetrahydropyrazolo[1,5-a]pyrimidin-6-yl)methyl)acrylamide]
- EC50: < 1000 nM

Compound: C=CC(=O)NCC1CN(c2ccc(C(F)(F)F)cc2)c2cnc(C(F)(F)F)n2C1 (single isomer, unassigned) [Cpd. No. 094-En2, (R)- or (S)-N-((6-(trifluoromethyl)-1-(4-(trifluoromethyl)phenyl)-1,2,3,4-tetrahydroimidazo[1,5-a]pyrimidin-3-yl)methyl)acrylamide]
- EC50: < 1000 nM

Compound: CCC(=O)NCC1Cc2c(cnn2C)N(c2ccc(C(F)(F)F)cc2)C1 (stereo not drawn) [Cpd. No. 072, N-((1-methyl-4-(4-(trifluoromethyl)phenyl)-4,5,6,7-tetrahydro-1H-pyrazolo[4,3-b]pyridin-6-yl)methyl)propionamide]
- EC50 (Homo sapiens, HEK-293T, 24 h): > 20000 nM

Compound: CCC(=O)NC1CN(c2ccc(C(F)(F)F)cc2)c2ccnn2C1 (stereo not drawn) [Cpd. No. 062, N-(4-(4-(trifluoromethyl)phenyl)-4,5,6,7-tetrahydropyrazolo[1,5-a]pyrimidin-6-yl)propionamide]
- EC50 (Homo sapiens, HEK-293T, 24 h): > 20000 nM

Compound: C=CC(=O)N1CCC2(C1)CN(c1ccc(C(F)(F)F)cc1)c1ccnn1C2 (single isomer, unassigned) [Cpd. No. 088-En1, (R)- or (S)-1-(4-(4-(trifluoromethyl)phenyl)-4,5-dihydro-7H-spiro[pyrazolo[1,5-a]pyrimidine-6,3′-pyrrolidin]-1′-yl)prop-2-en-1-one]
- EC50: < 1000 nM

Compound: CC(=O)N(CC#N)CC1CN(c2ccc(C(F)(F)F)cc2)c2ccnn2C1 (stereo not drawn) [Cpd. No. 043, N-(cyanomethyl)-N-((4-(4-(trifluoromethyl)phenyl)-4,5,6,7-tetrahydropyrazolo[1,5-a]pyrimidin-6-yl)methyl)acetamide]
- EC50 (Homo sapiens, HEK-293T, 24 h): > 20000 nM

Compound: CCC(=O)NCC1CN(c2ccc(C(F)(F)F)cc2)c2ccnn2C1 (single isomer, unassigned) [Cpd. No. 028-En2, (R)- or (S)-N-((4-(4-(trifluoromethyl)phenyl)-4,5,6,7-tetrahydropyrazolo[1,5-a]pyrimidin-6-yl)methyl)propionamide]
- EC50: < 1000 nM

Compound: CCC(=O)NCC1CN(c2ccc(C(F)(F)F)cc2)c2ccnn2C1 (stereo not drawn) [Cpd. No. 028, N-((4-(4-(trifluoromethyl)phenyl)-4,5,6,7-tetrahydropyrazolo[1,5-a]pyrimidin-6-yl)methyl)propionamide]
- EC50: < 1000 nM

Compound: C[C@H](NC(=O)NCC1CN(c2ccc(C(F)(F)F)cc2)c2ccnn2C1)c1ccccn1 (stereo partly drawn) [Cpd. No. 091, 1-((S)-1-(pyridin-2-yl)ethyl)-3-((4-(4-(trifluoromethyl)phenyl)-4,5,6,7-tetrahydropyrazolo[1,5-a]pyrimidin-6-yl)methyl)urea]
- EC50 (Homo sapiens, HEK-293T, 24 h): > 20000 nM

Compound: C=CC(=O)NC1CN(c2ccc(Cl)cc2)c2ccnn2C1 (stereo not drawn) [Cpd. No. 066, N-(4-(4-chlorophenyl)-4,5,6,7-tetrahydropyrazolo[1,5-a]pyrimidin-6-yl)acrylamide]
- EC50 (Homo sapiens, HEK-293T, 24 h): < 1000 nM

Compound: C=CC(=O)NCC1CN(C(=O)c2ccccc2)c2ccnn2C1 (stereo not drawn) [Cpd. No. 047, N-((4-benzoyl-4,5,6,7-tetrahydropyrazolo[1,5-a]pyrimidin-6-yl)methyl)acrylamide]
- EC50 (Homo sapiens, HEK-293T, 24 h): > 20000 nM

Compound: C=CC(=O)NCC1CN(c2ccc(C(F)(F)F)cc2)c2cc(C(F)(F)F)nn2C1 (single isomer, unassigned) [Cpd. No. 034-En2, (R)- or (S)-N-((2-(trifluoromethyl)-4-(4-(trifluoromethyl)phenyl)-4,5,6,7-tetrahydropyrazolo[1,5-a]pyrimidin-6-yl)methyl)acrylamide]
- EC50: < 1000 nM

Compound: C=CC(=O)NCC1CN(C(=O)C2CCCCC2)c2ccnn2C1 (stereo not drawn) [Cpd. No. 046, N-((4-(cyclohexanecarbonyl)-4,5,6,7-tetrahydropyrazolo[1,5-a]pyrimidin-6-yl)methyl)acrylamide]
- EC50 (Homo sapiens, HEK-293T, 24 h): 1000 to 20000 nM

Compound: CCC(=O)NCC1CN(Cc2cccc(C(F)(F)F)c2)c2ccnn2C1 (stereo not drawn) [Cpd. No. 053, N-((4-(3-(trifluoro-methyl)benzyl)-4,5,6,7-tetrahydropyrazolo[1,5-a]pyrimidin-6-yl)-methyl)propionamide]
- EC50 (Homo sapiens, HEK-293T, 24 h): > 20000 nM

Compound: C#CCN1CC(CNC(=O)C=C)Cn2nccc21 (stereo not drawn) [Cpd. No. 057, N-((4-(prop-2-yn-1-yl)-4,5,6,7-tetrahydropyrazolo[1,5-a]pyrimidin-6-yl)-methyl)acrylamide]
- EC50 (Homo sapiens, HEK-293T, 24 h): > 20000 nM

Compound: C=CC(=O)NCC1CN(c2ccc(-c3ccccc3)cc2)c2ccnn2C1 (single isomer, unassigned) [Cpd. No. 017-En2, (R)- or (S)-N-((4-([1,1′-biphenyl]-4-yl)-4,5,6,7-tetrahydropyrazolo[1,5-a]pyrimidin-6-yl)methyl)acrylamide]
- EC50: < 1000 nM

Compound: C=CC(=O)NCC1CN(c2cccc(F)c2)c2ccnn2C1 (stereo not drawn) [Cpd. No. 004, N-((4-(3-fluorophenyl)-4,5,6,7-tetrahydropyrazolo[1,5-a]pyrimidin-6-yl)methyl)acrylamide]
- EC50 (Homo sapiens, HEK-293T, 24 h): < 1000 nM

Compound: C=CC(=O)NCC1CN(c2ccc(C(F)(F)F)cc2)c2cc(C)nn2C1 (single isomer, unassigned) [Cpd. No. 029-En2, (R)- or (S)-N-((2-methyl-4-(4-(trifluoromethyl)phenyl)-4,5,6,7-tetrahydropyrazolo[1,5-a]pyrimidin-6-yl)methyl)acrylamide]
- EC50: < 1000 nM

Compound: C=CC(=O)NCC1CN(c2cnn(C(F)F)c2)c2ccnn2C1 (stereo not drawn) [Cpd. No. 025, N-((4-(1-(difluoromethyl)-1H-pyrazol-4-yl)-4,5,6,7-tetrahydropyrazolo[1,5-a]pyrimidin-6-yl)methyl)acrylamide]
- EC50 (Homo sapiens, HEK-293T, 24 h): > 20000 nM

Compound: Cn1cc2c(n1)CC(CNS(C)(=O)=O)CN2c1ccc(OC(F)(F)F)cc1 (stereo not drawn) [Cpd. No. 079, N-((2-methyl-4-(4-(trifluoromethoxy)phenyl)-4,5,6,7-tetrahydro-2H-pyrazolo[4,3-b]pyridin-6-yl)methyl)methanesulfonamide]
- EC50 (Homo sapiens, HEK-293T, 24 h): 1000 to 20000 nM

Compound: CN1CCC2(CN(c3ccc(C(F)(F)F)cc3)c3ccnn3C2)C1=O (single isomer, unassigned) [Cpd. No. 090-En2, (R)- or (S)-1′-methyl-4-(4-(trifluoromethyl)phenyl)-4,5-dihydro-7H-spiro[pyrazolo[1,5-a]pyrimidine-6,3′-pyrrolidin]-2′-one]
- EC50: > 20000 nM
